≈ marks a conversion by molar mass, not a printed value. Where two headings read alike, the source gives them in different places.
Key:
[1] = system: murine red blood cells (mRBCs); assay: Hemolysis assay; assay type: cell-based; conditions: 32 g/mL as printed, 37° C.
Experimental: The cells were then washed using PBS (3×) by spinning at 1,000 rpm for 7 min. After washing, mRBCs were counted using a hemacytometer and diluted in PBS to 5×10^7 cells/mL. All the tested compounds were diluted (32 μg/mL and 8 μg/mL) in PBS in Eppendorf tubes (500 μL volume) and 100 μL were added to each of the columns of the 96-well plate except for column 1. A positive control (1% Triton-X®, TX), a negative control (DMSO), and wells with no mRBCs to account for any background absorbance were used in the 96-well plate. After the addition of the compounds to the plate, 100 μL of mRBCs were added to each well and plates were incubated at 37° C. for 30 min. The plates were then spun at 1,000 rpm for 10 min till the mRBCs settle at the bottom of the plates. 100 μL of supernatant was then transferred to a new 96-well plate and the absorbance at 500 nm was read using a spectrophotometer (SpectraMax M5). Percent hemolysis was calculated using the following equation after subtraction of the background absorbance.
To test the safety of the compounds, they were for exampled for hemolytic effect on murine red blood cells (FIG. 7).

[2] = system: all 43 strains of A. baumannii (41 CDC strains and 2 ATCC strains); assay: MIC value statistics for all A. baumannii strains; assay type: cell-based, Acinetobacter baumannii; conditions: of 43 A. baumannii strains
Summary of the method: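 Broth microdilution in MH broth against CDC AR Isolate Bank and ATCC strains. Inoculum from overnight MH plates (37 °C), suspended to OD600 ~0.5, then diluted 1:1000 into serial twofold compound dilutions. Sterile and growth controls included per row.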

[3] = system: human embryonic kidney cells (HEK-293); assay: Mammalian cytotoxicity assay (resazurin); conditions: HEK-293, 32 μg/mL (printed 32 g/mL for 3e), 24 h
[4] = system: S. epidermidis ATCC 12228; assay: MIC determination; assay type: cell-based; conditions: Staphylococcus epidermidis, ATCC12228; Table 4; read-out: MIC S. epidermidis ATCC 12228
[5] = system: all 41 multidrug-resistant Ab strains (#273-313) from the CDC and FDA AR Bank; assay: MIC determination, panel statements; assay type: cell-based; conditions: Acinetobacter baumannii; Table 2 note; almost all of the 41 strains; read-out: MIC values against almost all strains
Experimental: All bacterial strains listed above were stored at −80° C. All strains were streaked on Mueller-Hinton (MH) plates and allowed to grow at 37° C. overnight. Enough colonies were scraped from the plate and suspended in MH broth with vortexing to reach an attenuance at 600 nm (OD600) of ˜0.5. The resulting culture was diluted 1:1000 and added to the prepared serially doubly diluted compound solutions in 96-well plates. For M. smegmatis, a 1:100 dilution of the bacteria was done in MH. All MIC values were determined using 96-well plates with low evaporation seals at least in duplicate. For each row, one well was reserved for sterile control (which consisted of 200 μL of MH medium) and another well was reserved for growth control (which consisted of 100 μL of MH medium seeded with 100 μL of bacterial culture).
Then all 46 compounds were tested against a broad panel of all 41 Ab strains from the CDC and FDA Antibiotic Resistance (AR) Isolate Bank (Table 2; data shown for 2 representative compounds), which were all highly multidrug-resistant strains, including those resistant to colistin. […] The activity of the monohydrazides was not dependent on the extent (number of resistance mutations) or severity (antibiotic MIC) of resistance. All conclusions made from Table 1 remained valid for all compounds against these 41 additional Ab strains. […]

[6] = system: K. pneumoniae ATCC BAA 1705; assay: MIC determination; assay type: cell-based; conditions: Klebsiella pneumoniae, BAA1705; Table 3
K. pneumoniae ATCC 27736 = assay: MIC determination; assay type: cell-based; conditions: Klebsiella pneumoniae, ATCC27736; Table 3; read-out: MIC K. pneumoniae ATCC 27736
[7] = system: Ab ATCC BAA1605 (strain J, multidrug-resistant); assay: MIC determination; assay type: cell-based; conditions: Acinetobacter baumannii
Summary of the method: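 Broth double-dilution MIC in Mueller-Hinton broth, 96-well plates, at least in duplicate. Inoculum: colonies grown overnight at 37 °C on MH plates, suspended to OD600 ~0.5 and diluted 1:1000 into serially doubly diluted compound.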

S. aureus ATCC 25923 = assay: MIC determination; assay type: cell-based; conditions: Staphylococcus aureus, ATCC25923; Table 4; read-out: MIC S. Aureus ATCC 25923
Y. pestis CO92 = assay: microbe, parasite or virus in culture; assay type: cell-based; conditions: Yersinia pestis, CO92, read-out: MIC Y. pestis CO92
P. aeruginosa ATCC 27853 = assay: MIC determination; assay type: cell-based; conditions: Pseudomonas aeruginosa, ATCC27853; Table 3; read-out: MIC P. aeruginosa ATCC 27853
E. coli ATCC BAA 2469 = assay: MIC determination; assay type: cell-based; conditions: Escherichia coli, BAA2469; Table 3
B. anthracis Sterne F32 = assay: microbe, parasite or virus in culture; assay type: cell-based; conditions: Bacillus anthracis, STERNEF32, read-out: MIC B. anthracis Sterne F32
Ab ATCC 19606 (strain I) = assay: MIC determination (double dilution, Mueller-Hinton broth); assay type: cell-based, Acinetobacter baumannii; conditions: Acinetobacter baumannii, ATCC19606; Table 1; control strain; read-out: MIC Ab ATCC 19606
S. enterica ATCC 14028 = assay: MIC determination; assay type: cell-based; conditions: Salmonella enterica, ATCC14028; Table 4; read-out: MIC S. enterica ATCC 14028
E. cloacae ATCC 13047 = assay: MIC determination; assay type: cell-based; conditions: Enterobacter cloacae, ATCC13047; Table 4; read-out: MIC E. cloacae ATCC 13047
M. smegmatis = assay: MIC determination; assay type: cell-based, Mycobacterium smegmatis; conditions: Mycolicibacterium smegmatis; Table 4

Row | Structure (SMILES) | hemolysis [1] [%] | number of compound/strain combinations with MIC value 0.25 μg/mL [2] | number of compound/strain combinations with MIC value 0.5 μg/mL [2] | number of compound/strain combinations with MIC value 1 μg/mL [2] | inhibition of growth [3] [%] | MIC [4] [µg/mL] | MIC [5] [µg/mL] | MIC [6] [µg/mL] | MIC (K. pneumoniae ATCC 27736) [µg/mL] | MIC ([7]; Table 1, multidrug-resistant strain, read-out: MIC Ab ATCC BAA 1605) [µg/mL] | MIC ([7]; Table 3, positive control strain, read-out: MIC A. Baumannii ATCC BAA 1605) [µg/mL] | MIC (S. aureus ATCC 25923) [µg/mL] | MIC (Y. pestis CO92) [µg/mL] | MIC (P. aeruginosa ATCC 27853) [µg/mL] | MIC (E. coli ATCC BAA 2469) [µg/mL] | MIC (B. anthracis Sterne F32) [µg/mL] | MIC (Ab ATCC 19606 (strain I)) [µg/mL] | MIC (S. enterica ATCC 14028) [µg/mL] | MIC (E. cloacae ATCC 13047) [µg/mL] | MIC (M. smegmatis) [µg/mL]
1 | O=C(NNc1cccc(F)c1)c1ccc2ccccc2n1 [Compound 12a] | 20 | 8 | 21 | 14 | 40 | – | – | – | – | – | – | – | – | – | – | – | – | – | – | –
2 | NC[C@H]1O[C@H](O[C@H]2[C@H](O)[C@@H](O[C@H]3O[C@H](CO)[C@@H](O)[C@H](N)[C@H]3O)[C@H](N)C[C@@H]2N)[C@H](O)[C@@H](O)[C@@H]1O [KAN, kanamycin, reference compound] | – | – | – | – | – | 0.63 (≈ 1.3 µM) | > 10 | > 128 | 4 (≈ 8.26 µM) | 10 (≈ 20.6 µM) | 32 (≈ 66 µM) | 0.63 (≈ 1.3 µM) | 2.5 (≈ 5.16 µM) | > 128 | > 128 | > 160 | 5 (≈ 10.3 µM) | 2.5 (≈ 5.16 µM) | 1.25 (≈ 2.58 µM) | ≤ 0.03

— US20260041683A1, “Compounds with Anti-Acinetobacter Baumannii Activity” (University of Kentucky Research Foundation, priority 2022, published 2026)
